{"source": "patent US20210113586A1", "about": "“NEW USE AND METHODS OF MODULATING IMMUNE RESPONSES” (DIAMYD MEDICAL AB, priority 2018, published 2021)", "assay_type_in_all_cases": "cell-based, human", "key": {"responder CD4+ T cells [1]": {"tested_on": "responder CD4+ T cells", "test": "Proliferation of anti-CD3 stimulated GABA responder CD4+ T cells from ND individuals", "details": "for effect of agonist on proliferation: 100 nM, FIG. 3f", "method": "(§1) Peripheral Blood Mononuclear cells (PBMCs) are isolated from blood from donors diagnosed with Type-1 diabetes and healthy controls. Alternatively, CD4-positive cells (T-cells) are further isolated from PBMCs by e.g. MACS beads, FACS or similar technology. […] A reasonable replication, such as 3 cultures of each condition, is performed. A normalized proliferation value for each culture is then calculated by a standard proliferation measurement method, such as by CFSE staining or radioactive thymidine incorporation (requiring additional factors be added during culture) or by staining for proliferation markers.\n(§2) In the FIG. 1, the proliferation of cells retrieved from 13 T1D subjects and 15 healthy controls were inspected. […] A normalized proliferation index was calculated for each culture.\n(§3) The proliferation of freshly isolated human PBMCs or CD4^+ T cells was evaluated with MTT (3-(4,5-Dimethylthiazol-2-yl)-2,5-Diphenyltetrazolium Bromide) assay (Ring et al., 2012). Cells were suspended in complete medium (RPMI 1640 supplemented with 2 mM glutamine, 25 mM HEPES, 10% heat inactivated fetal bovine serum, 100 U/ml penicillin, 10 mg/ml streptomycin, 5 mM R-mercaptoethanol) in a concentration 1 million cells per milliliter. The assay was performed in 96-well plates in duplicates or triplicates, where each well was pre-coated with 3 μg/ml anti-CD3 antibody for 3-5 h at 37° C. Each well was loaded with 100,000 cells. Drugs were added to the wells at the relevant concentrations. The plate was incubated for 68 h at 37° C. (95% O2, 5% CO2) and then, a media-soluble tetrazolium dye MTT was added to a final concentration of 1 mM after which the plate was incubated for additional 4 h. The plate was then centrifuged at 2,000 RPM for 10 min to pellet the insoluble purple formazan crystals. The supernatant culture media was collected, stored at −80° C. and used for analysis of cytokines using the multiplex proximity extension assay (PEA). The formazan crystal pellet was dissolved in DMSO and the plate was read within 10 min using a Multiskan MS plate reader (Labsystems) at 550 nm. The optical density value was used as the proliferation index value. Drugs were purchased from Sigma-Aldrich or Tocris (Bristol, UK)."}, "GABAA receptors": {"tested_on": "GABAA receptors", "test": "Patch-clamp single-channel current recording in CD4+ T cells", "details": "picrotoxin 100 μM; FIG. 3i", "method": "GABA-activated currents were recorded by the patch-clamp technique as previously described (Bjurstom et al., 2008, Jin et al., 2011a). Extracellular recording solution contained (in mM): 145 NaCl, 3 KCl, 1 CsCl, 1 CaCl2, 1 MgCl2, 10 glucose and 10 TES; the pH was adjusted to 7.4 with NaOH. To record in the whole-cell configuration, the pipette solution contained (in mM): 136 CsCl, 20 KCl, 1 MgCl2, 3 MgATP and 10 TES; pH was adjusted to 7.3 with CsOH. The pipette solution for the cell-attached configuration contained (in mM): 69 NaCl, 5 KCl, 75 CsCl, 1 CaCl2, 1 MgCl2 and 10 TES; pH was adjusted to 7.4 with NaOH. […] The pipette potential (Vp) was −80 mV (hyperpolarizing) in the whole-cell configuration and −60 mV (depolarizing) in the cell-attached configuration."}, "responder CD4+ T cells [2]": {"tested_on": "responder CD4+ T cells", "test": "Multiplex PEA of cytokines released into culture medium by responder CD4+ T cells", "details": "GABA plus 100 μM picrotoxin", "method": "as §3\nPlasma samples, and culture media samples that were collected from plate wells at the end of the proliferation assay, were analyzed by multiplex PEA with an Olink Inflammation […] panel, targeting 92 proteins related to inflammation (Olink Proteomics, Uppsala, Sweden) as previously described (Edvinsson et al., 2017, Assarsson et al., 2014, Larsson et al., 2015, Larssen et al., 2017). Briefly, 1 μl of sample (plasma samples or cell culture media samples) or negative control was mixed with 3 μl probe solution containing a set of 92 paires DNA-oligonucleotide-conjugated antibodies. Upon recognition of a target protein by a pair of probes, the DNA oligonucletodies on the antibodies are brought in proximity and hybridize to each other, followed by enzymatic DNA polymerization to form a new DNA molecule. The newly formed DNA molecule is then amplified and quantified using a microfluidic real-time qPCR, BioMark™ HD (Fluidigm, South San Francisco, Calif., USA). The generated quantification cycle (Cq) values are normalized against spiked-in controls to convert Cq values to Normalized Protein eXpression (NPX) value on log2 scale. NPX is an arbitrary unit, which is positively correlated to protein concentration. These NPX data were then converted to linear data, using the formula 2^NPX, prior to further statistical analysis. Limit of detection (LOD) for each protein was defined as three standard deviations above the background. Proteins with levels below LOD were excluded from further data analysis."}, "[3]": {"tested_on": "PBMCs from T1D individuals", "test": "Proliferation of anti-CD3 stimulated PBMCs from T1D donors", "details": "GABA plus picrotoxin", "method": "as §1, §2\nas §3, with “The optical density value was used as the proliferation index value. Drugs were purchased from Sigma-Aldrich or Tocris (Bristol, UK).” left out"}, "[4]": {"details": "FIG. 5b-c legend, GABA concentration and cell group not given"}}, "data": [{"molecule": "CCOC(OCC)P(=O)(O)CCCNCc1ccc(Cl)c(Cl)c1", "note": "[CGP52432]", "values": [{"measurement": "effect of antagonist on proliferation", "setting": "responder CD4+ T cells [1]; 50 μM, FIG. 3e", "result": "ineffective"}]}, {"molecule": "NC/C=C/C(=O)O", "note": "[TACA]", "values": [{"measurement": "effect of agonist on proliferation", "setting": "responder CD4+ T cells [1]", "result": "inhibited the proliferation similar to GABA"}]}, {"molecule": "NCC(CC(=O)O)c1ccc(Cl)cc1", "note": "(stereo not shown) [baclofen]", "values": [{"measurement": "effect of agonist on proliferation", "setting": "responder CD4+ T cells [1]", "result": "ineffective"}]}, {"molecule": "NCc1cc(=O)[nH]o1", "note": "[muscimol]", "values": [{"measurement": "effect of agonist on proliferation", "setting": "responder CD4+ T cells [1]", "result": "inhibited the proliferation similar to GABA"}]}, {"molecule": "picrotoxin [reference compound]", "values": [{"measurement": "effect on GABA-activated single-channel currents", "setting": "GABAA receptors", "result": "blocked"}, {"measurement": "CCL19, 2^NPX normalized to controls, mean and SEM", "setting": "responder CD4+ T cells [2]; [4]", "result": "1.72±0.74"}, {"measurement": "CCL20, 2^NPX normalized to controls, mean and SEM", "setting": "responder CD4+ T cells [2]; [4]", "result": "1.43±0.51"}, {"measurement": "CXCL11, 2^NPX normalized to controls, mean and SEM", "setting": "responder CD4+ T cells [2]; [4]", "result": "1.55±0.51"}, {"measurement": "effect on GABA inhibition of cytokine release", "setting": "responder CD4+ T cells [2]; FIG. 5b, c", "result": "reversed"}, {"measurement": "effect on GABA-reduced proliferation", "setting": "responder CD4+ T cells [1]; Example 1, FIG. 1B, GABA plus picrotoxin", "result": "reversed"}, {"measurement": "effect on 500 nM GABA-induced inhibition of proliferation", "setting": "responder CD4+ T cells [1]; picrotoxin, FIG. 3e", "result": "partially reversed"}, {"measurement": "effect on GABA-reduced proliferation", "setting": "[3]; Example 1, FIG. 1D", "result": "reversed"}, {"measurement": "effect on GABA inhibition of proliferation", "setting": "[3]; Example 2, FIG. 3b", "result": "reversed"}]}]}
